Assay results taken from PubChem BioAssay AID330 (DTP/NCI, 2004).
Where “and” joins values, the source holds several entries; their conditions need not be identical. Equal values may be shown once. Toxic doses and inconclusive results are not listed. The calls were made as follows: active = survival T/C of 150% or more; inactive = T/C below 125% in these data.

System: P388 leukemia ip, CD2F1 mice, survival T/C
Assay: NCI In Vivo Anticancer Drug Screen. Data for tumor model P388 Leukemia (intraperitoneal) in CD2F1 (CDF1) mice
Conditions: endpoint: median survival time, higher = longer survival
Summary of the method: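 Mice carrying the transplanted tumor received test compound or vehicle. Survival was recorded in each group, and the value is the treated-group measurement divided by that of the vehicle-treated control group.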

[1] = dose: 50.0 mg/kg/injection, schedule: Q01DX005 (ip), vehicle: saline
[2] = dose: 12.5 mg/kg/injection, schedule: Q01DX005 (ip), vehicle: saline
[3] = dose: 25.0 mg/kg/injection, schedule: Q01DX005 (ip), vehicle: saline
[4] = dose: 50.0 mg/kg/injection, schedule: Q01DX009 (ip), vehicle: saline
[5] = dose: 100.0 mg/kg/injection, schedule: Q01DX009 (ip), vehicle: saline
[6] = dose: 200.0 mg/kg/injection, schedule: Q01DX009 (ip), vehicle: saline
[7] = dose: 100.0 mg/kg/injection, schedule: Q01DX009 (ip), vehicle: saline with Tween-80
[8] = dose: 50.0 mg/kg/injection, schedule: Q01DX005 (ip), vehicle: saline with Tween-80
[9] = dose: 100.0 mg/kg/injection, schedule: Q01DX005 (ip), vehicle: saline with Tween-80
[10] = dose: 50.0 mg/kg/injection, schedule: Q01DX009 (ip), vehicle: Klucel (hydroxypropylcellulose) (HPC)
[11] = dose: 100.0 mg/kg/injection, schedule: Q01DX009 (ip), vehicle: Klucel (hydroxypropylcellulose) (HPC)
[12] = dose: 200.0 mg/kg/injection, schedule: Q01DX009 (ip), vehicle: Klucel (hydroxypropylcellulose) (HPC)
[13] = dose: 200.0 mg/kg/injection, schedule: Q01DX005 (ip), vehicle: saline with Tween-80
[14] = dose: 6.25 mg/kg/injection, schedule: Q01DX005 (ip), vehicle: Klucel (hydroxypropylcellulose) (HPC)
[15] = dose: 12.5 mg/kg/injection, schedule: Q01DX005 (ip), vehicle: Klucel (hydroxypropylcellulose) (HPC)
[16] = dose: 100.0 mg/kg/injection, schedule: Q04DX002 (ip), vehicle: saline with Tween-80
[17] = dose: 200.0 mg/kg/injection, schedule: Q04DX002 (ip), vehicle: saline with Tween-80
[18] = dose: 400.0 mg/kg/injection, schedule: Q04DX002 (ip), vehicle: saline with Tween-80

Measured: T/C

CCOCCN(CCOCC)c1ncnc2nc[nH]c12
inactive: [1] 102 % of control | dose: 100.0 mg/kg/injection, schedule: Q01DX005 (ip), vehicle: saline 102 % of control | dose: 200.0 mg/kg/injection, schedule: Q01DX005 (ip), vehicle: saline 98 % of control

COCCOC(C)C(/C=N/N=C(N)N)=N/N=C(N)N (stereo not drawn)
inactive: [2] 101 % of control | [3] 103 % of control | [1] 99 % of control and 101 % of control

COCCOC
inactive: [4] 95 % of control | [5] 98 % of control | [6] 100 % of control | dose: 400.0 mg/kg/injection, schedule: Q01DX009 (ip), vehicle: saline 100 % of control

O=C(Nc1ccc(Br)cc1)c1ccccc1
inactive: [7] 95 % of control | dose: 200.0 mg/kg/injection, schedule: Q01DX009 (ip), vehicle: saline with Tween-80 90 % of control | dose: 400.0 mg/kg/injection, schedule: Q01DX009 (ip), vehicle: saline with Tween-80 100 % of control

O=P1(c2ccccc2)CCCCN1 (stereo not drawn)
inactive: dose: 100.0 mg/kg/injection, schedule: Q04DX003 (ip), vehicle: saline 104 % of control | dose: 200.0 mg/kg/injection, schedule: Q04DX003 (ip), vehicle: saline 110 % of control | dose: 400.0 mg/kg/injection, schedule: Q04DX003 (ip), vehicle: saline 110 % of control

NC(=O)c1csc(-c2ccc(CO)o2)n1
inactive: [8] 95 % of control | [9] 86 % of control

COc1ccc(Cl)cc1NC(=O)Nc1nccs1
inactive: dose: 25.0 mg/kg/injection, schedule: Q01DX009 (ip), vehicle: Klucel (hydroxypropylcellulose) (HPC) 90 % of control | [10] 90 % of control | [11] 90 % of control | [12] 88 % of control

C1CNCCSCCCSCCNC1
inactive: dose: 25.0 mg/kg/injection, schedule: Q01DX009 (ip), vehicle: saline 100 % of control | [4] 98 % of control | [5] 89 % of control | [6] 87 % of control

CC12CCCN(CCCl)C1CCC1C2CCC2(C)C1CCCN2CCCl (stereo not drawn)
inactive: dose: 0.78 mg/kg/injection, schedule: Q01DX001 (ip), vehicle: saline with Tween-80 108 % of control | dose: 1.56 mg/kg/injection, schedule: Q01DX001 (ip), vehicle: saline with Tween-80 112 % of control and 118 % of control | dose: 1.56 mg/kg/injection, schedule: Q01DX001 (ip), vehicle: saline 102 % of control | dose: 3.13 mg/kg/injection, schedule: Q01DX001 (ip), vehicle: saline with Tween-80 117 % of control

C=CC(C)(O)CS(=O)(=O)c1ccccc1 (stereo not drawn)
inactive: [4] 93 % of control | [5] 101 % of control | [6] 101 % of control

CCC(=NCCCCCCN=C(CC)c1cc(O)ccc1O)c1cc(O)ccc1O.[Fe]
inactive: [8] 88 % of control | [9] 89 % of control | [13] 91 % of control

Cc1cccc(/C=C/C(=O)C(CN(C)C)CN(C)C)c1
inactive: [14] 104 % of control | [15] 100 % of control

O=C1OC2=C(CCCC2)C(N2CCCCC2)C12SCCCS2 (stereo not drawn)
inactive: dose: 100.0 mg/kg/injection, schedule: Q04DX003 (ip), vehicle: saline with Tween-80 109 % of control | dose: 200.0 mg/kg/injection, schedule: Q04DX003 (ip), vehicle: saline with Tween-80 103 % of control | dose: 400.0 mg/kg/injection, schedule: Q04DX003 (ip), vehicle: saline with Tween-80 101 % of control

CC12CC3CC(C)(C1)CC(C/C=N/NC(N)=O)(C3)C2
inactive: [10] 102 % of control | [11] 92 % of control | [12] 99 % of control

O=[N+]([O-])c1ccc(Cl)c2c([N+](=O)[O-])cccc12
inactive: dose: 50.0 mg/kg/injection, schedule: Q01DX009 (ip), vehicle: saline with Tween-80 102 % of control | [7] 110 % of control

C(=C\c1ccnc2c1ccc1ccccc12)/c1ccccc1
inactive: dose: 12.5 mg/kg/injection, schedule: Q01DX005 (ip), vehicle: saline with Tween-80 96 % of control | dose: 25.0 mg/kg/injection, schedule: Q01DX005 (ip), vehicle: saline with Tween-80 96 % of control | [8] 90 % of control | [9] 88 % of control | [13] 88 % of control

CCN=C(NCC)Nc1ccc(NC(=O)Nc2ccc(NC(=O)Nc3ccc(NC(=NCC)NCC)cc3)cc2)cc1
inactive: [14] 107 % of control | [15] 117 % of control | dose: 25.0 mg/kg/injection, schedule: Q01DX005 (ip), vehicle: Klucel (hydroxypropylcellulose) (HPC) 121 % of control and 123 % of control | dose: 50.0 mg/kg/injection, schedule: Q01DX005 (ip), vehicle: Klucel (hydroxypropylcellulose) (HPC) 117 % of control | dose: 200.0 mg/kg/injection, schedule: Q01DX005 (ip), vehicle: Klucel (hydroxypropylcellulose) (HPC) 90 % of control

O=S(=O)(O)c1ccc2nccn2c1
inactive: dose: 100.0 mg/kg/injection, schedule: Q01DX001 (ip), vehicle: suspension in saline 100 % of control | dose: 200.0 mg/kg/injection, schedule: Q01DX001 (ip), vehicle: suspension in saline 89 % of control | dose: 400.0 mg/kg/injection, schedule: Q01DX001 (ip), vehicle: suspension in saline 100 % of control

c1ccc(O[Si](Oc2ccccc2)(Oc2ccccc2)Oc2ccccc2)cc1
inactive: dose: 25.0 mg/kg/injection, schedule: Q01DX009 (ip), vehicle: other 86 % of control | dose: 50.0 mg/kg/injection, schedule: Q01DX009 (ip), vehicle: other 96 % of control | dose: 100.0 mg/kg/injection, schedule: Q01DX009 (ip), vehicle: other 99 % of control

CC1CCC2N(C1)CC1C3(O)CC4(O)C(CCC5C(=O)C(O)CCC54C)C3(O)CC(O)C1(O)C2(C)O (stereo not drawn)
inactive: dose: 1.87 mg/kg/injection, schedule: Q01DX005 (ip), vehicle: Klucel (hydroxypropylcellulose) (HPC) 96 % of control | dose: 3.75 mg/kg/injection, schedule: Q01DX005 (ip), vehicle: Klucel (hydroxypropylcellulose) (HPC) 97 % of control | dose: 7.5 mg/kg/injection, schedule: Q01DX005 (ip), vehicle: Klucel (hydroxypropylcellulose) (HPC) 99 % of control and 97 % of control

CCN(CCCN(C)C)c1ccc(/C=C/c2ccnc3ccccc23)cc1
inactive: [5] 108 % of control

CCCCN=C(N)N/N=C(\C)c1cccc2c1Cc1c(/C(C)=N/NC(N)=NCCCC)cccc1-2
inactive: dose: 12.5 mg/kg/injection, schedule: Q04DX002 (ip), vehicle: saline with Tween-80 108 % of control

CN(C)C1C(=O)C(C(N)=O)=C(O)C2(O)C(=O)C3=C(O)c4c(O)cccc4C(C)(O)C3C(O)C12.[Cl][Sb]([Cl])[Cl] (stereo not drawn)
inactive: [8] 113 % of control | [9] 99 % of control

OCC(O)C1OC(c2ccccc2)OC2COC(c3ccccc3)OC21 (stereo not drawn)
inactive: [16] 97 % of control | [17] 86 % of control | [18] 89 % of control

CC1(/C=C/c2ccccc2)NC(=O)NC1=O (stereo not drawn)
inactive: [10] 88 % of control | [11] 98 % of control | [12] 104 % of control

CCCCOP(O)(=S)OCCCC.[Y]
inactive: dose: 25.0 mg/kg/injection, schedule: Q01DX009 (ip), vehicle: saline + alcohol 98 % of control | dose: 50.0 mg/kg/injection, schedule: Q01DX009 (ip), vehicle: saline + alcohol 99 % of control | dose: 100.0 mg/kg/injection, schedule: Q01DX009 (ip), vehicle: saline + alcohol 98 % of control | [16] 102 % of control | dose: 200.0 mg/kg/injection, schedule: Q01DX009 (ip), vehicle: saline + alcohol 91 % of control | [17] 96 % of control | [18] 96 % of control

COc1cc2c(cc1OC)CN(C)C(C)C2 (stereo not drawn)
inactive: [2] 101 % of control | [3] 106 % of control | [1] 109 % of control and 97 % of control

NC(=O)N/N=C1/CCC(OC(=O)c2ccccc2)CC1CC(=O)O (stereo not drawn)
inactive: [8] 100 % of control | [9] 100 % of control | [13] 100 % of control

CC(=O)O[C@@H]1C[C@@](C)(C(=O)[C@H]2COC(=O)C2)[C@@H]2CC(=O)O[C@@H]3C[C@H]4[C@H](C)C[C@H](O)C(=O)[C@]4(C)[C@@H]1[C@]23C
inactive: dose: 3.0 mg/kg/injection, schedule: Q01DX009 (ip), vehicle: saline + alcohol 98 % of control | dose: 6.0 mg/kg/injection, schedule: Q01DX009 (ip), vehicle: saline + alcohol 116 % of control | dose: 12.0 mg/kg/injection, schedule: Q01DX009 (ip), vehicle: saline + alcohol 107 % of control | dose: 24.0 mg/kg/injection, schedule: Q01DX009 (ip), vehicle: saline + alcohol 100 % of control | dose: 48.0 mg/kg/injection, schedule: Q01DX009 (ip), vehicle: saline + alcohol 107 % of control
